Assay results as given in ChEMBL document CHEMBL3612049, “Design, synthesis and molecular docking of salicylic acid derivatives containing metronidazole as a new class of antimicrobial agents” (Bioorg Med Chem, 2015).
Values after ≈ are worked out from the molar mass of the structure shown.

Key:
[1] = Inhibition of Staphylococcus aureus TyrRS expressed in Escherichia coli BL21 using L-[ring-3,5-3H]-tyrosine preincubated for 10 mins by liquid scintillation counting
[2] = Cytotoxicity against human macrophages after 24 hrs by MTT assay; format: cell-based, Macrophage
Pseudomonas aeruginosa = assay: Antimicrobial activity against Pseudomonas aeruginosa ATCC 13525 after 18 hrs by broth microdilution method; format: functional; settings: ATCC 13525, 18 h
Bacillus spizizenii = assay: Antimicrobial activity against Bacillus subtilis ATCC 6633 after 18 hrs by broth microdilution method; format: functional; settings: ATCC 6633, 18 h
Escherichia coli = assay: Antimicrobial activity against Escherichia coli ATCC 35218 after 18 hrs by broth microdilution method; format: functional; settings: ATCC 35218, 18 h
[3] = Hemolytic activity in human erythrocytes assessed as hemoglobin release after 3 hrs by spectrophotometric analysis; format: ADME, cell-based, Erythrocyte; settings: read-out: LC50
Staphylococcus aureus = assay: Antimicrobial activity against Staphylococcus aureus ATCC 6538 after 18 hrs by broth microdilution method; format: functional; settings: ATCC 6538, 18 h

Structure (SMILES): Cc1ncc([N+](=O)[O-])n1CCOC(=O)c1ccccc1OCc1c(F)cccc1F
- IC50 [1]: 6.9 µM
- CC50 at 24 h [2]: 277 µM
- MIC (Pseudomonas aeruginosa): 50 µg/mL (≈ 120 µM)
- MIC (Bacillus spizizenii): 25 µg/mL (≈ 59.9 µM)
- MIC (Escherichia coli): 50 µg/mL (≈ 120 µM)
- HC50 at 3 h [3]: > 10 µM
- MIC (Staphylococcus aureus): 25 µg/mL (≈ 59.9 µM)

Structure (SMILES): Cc1ncc([N+](=O)[O-])n1CCOC(=O)c1ccccc1OCc1ccc(C(C)C)cc1
- IC50 [1]: 3.3 µM
- CC50 at 24 h [2]: 272 µM
- MIC (Pseudomonas aeruginosa): 6.25 µg/mL (≈ 14.8 µM)
- MIC (Bacillus spizizenii): 3.13 µg/mL (≈ 7.39 µM)
- MIC (Escherichia coli): 6.25 µg/mL (≈ 14.8 µM)
- HC50 at 3 h [3]: > 10 µM
- MIC (Staphylococcus aureus): 3.13 µg/mL (≈ 7.39 µM)

Structure (SMILES): Cc1cc(C)cc(COc2ccccc2C(=O)OCCn2c([N+](=O)[O-])cnc2C)c1
- IC50 [1]: 3 µM
- CC50 at 24 h [2]: 252 µM
- MIC (Pseudomonas aeruginosa): 12.5 µg/mL (≈ 30.5 µM)
- MIC (Bacillus spizizenii): 1.57 µg/mL (≈ 3.83 µM)
- MIC (Escherichia coli): 6.25 µg/mL (≈ 15.3 µM)
- HC50 at 3 h [3]: > 10 µM
- MIC (Staphylococcus aureus): 3.13 µg/mL (≈ 7.64 µM)

Structure (SMILES): Cc1ncc([N+](=O)[O-])n1CCOC(=O)c1ccccc1OCc1c(F)c(F)c(F)c(F)c1F
- IC50 [1]: 8 µM
- CC50 at 24 h [2]: 236 µM
- MIC (Pseudomonas aeruginosa): 100 µg/mL (≈ 212 µM)
- MIC (Bacillus spizizenii): 50 µg/mL (≈ 106 µM)
- MIC (Escherichia coli): 100 µg/mL (≈ 212 µM)
- HC50 at 3 h [3]: > 10 µM
- MIC (Staphylococcus aureus): 50 µg/mL (≈ 106 µM)

Structure (SMILES): Cc1ncc([N+](=O)[O-])n1CCOC(=O)c1ccccc1OCc1cc(F)c(F)c(F)c1
- IC50 [1]: 6.7 µM
- CC50 at 24 h [2]: 267 µM
- MIC (Pseudomonas aeruginosa): 50 µg/mL (≈ 115 µM)
- MIC (Bacillus spizizenii): 25 µg/mL (≈ 57.4 µM)
- MIC (Escherichia coli): 100 µg/mL (≈ 230 µM)
- HC50 at 3 h [3]: > 10 µM
- MIC (Staphylococcus aureus): 25 µg/mL (≈ 57.4 µM)

Structure (SMILES): Cc1ncc([N+](=O)[O-])n1CCOC(=O)c1ccccc1OCc1cc(Cl)ccc1Cl
- IC50 [1]: 2.7 µM
- CC50 at 24 h [2]: 193 µM
- MIC (Pseudomonas aeruginosa): 6.25 µg/mL (≈ 13.9 µM)
- MIC (Bacillus spizizenii): 0.78 µg/mL (≈ 1.73 µM)
- MIC (Escherichia coli): 3.13 µg/mL (≈ 6.95 µM)
- HC50 at 3 h [3]: > 10 µM
- MIC (Staphylococcus aureus): 1.57 µg/mL (≈ 3.49 µM)

Structure (SMILES): Cc1ncc([N+](=O)[O-])n1CCOC(=O)c1ccccc1OCc1ccccc1F
- IC50 [1]: 6.7 µM
- CC50 at 24 h [2]: 155 µM
- MIC (Pseudomonas aeruginosa): 50 µg/mL (≈ 125 µM)
- MIC (Bacillus spizizenii): 25 µg/mL (≈ 62.6 µM)
- MIC (Escherichia coli): 50 µg/mL (≈ 125 µM)
- HC50 at 3 h [3]: > 10 µM
- MIC (Staphylococcus aureus): 12.5 µg/mL (≈ 31.3 µM)

Structure (SMILES): Cc1ncc([N+](=O)[O-])n1CCOC(=O)c1ccccc1OCc1cccc(Cl)c1
- IC50 [1]: 5 µM
- CC50 at 24 h [2]: 188 µM
- MIC (Pseudomonas aeruginosa): 12.5 µg/mL (≈ 30.1 µM)
- MIC (Bacillus spizizenii): 6.25 µg/mL (≈ 15 µM)
- MIC (Escherichia coli): 12.5 µg/mL (≈ 30.1 µM)
- HC50 at 3 h [3]: > 10 µM
- MIC (Staphylococcus aureus): 6.25 µg/mL (≈ 15 µM)

Structure (SMILES): Cc1ccc(COc2ccccc2C(=O)OCCn2c([N+](=O)[O-])cnc2C)cc1
- IC50 [1]: 4.7 µM
- CC50 at 24 h [2]: 140 µM
- MIC (Pseudomonas aeruginosa): 12.5 µg/mL (≈ 31.6 µM)
- MIC (Bacillus spizizenii): 3.13 µg/mL (≈ 7.92 µM)
- MIC (Escherichia coli): 12.5 µg/mL (≈ 31.6 µM)
- HC50 at 3 h [3]: > 10 µM
- MIC (Staphylococcus aureus): 3.13 µg/mL (≈ 7.92 µM)

Structure (SMILES): Cc1ncc([N+](=O)[O-])n1CCOC(=O)c1ccccc1OCc1ccc(Cl)c(Cl)c1
- IC50 [1]: 2.3 µM
- CC50 at 24 h [2]: 188 µM
- MIC (Pseudomonas aeruginosa): 1.57 µg/mL (≈ 3.49 µM)
- MIC (Bacillus spizizenii): 0.78 µg/mL (≈ 1.73 µM)
- MIC (Escherichia coli): 3.13 µg/mL (≈ 6.95 µM)
- HC50 at 3 h [3]: > 10 µM
- MIC (Staphylococcus aureus): 0.39 µg/mL (≈ 0.866 µM)

Structure (SMILES): Cc1ncc([N+](=O)[O-])n1CCOC(=O)c1ccccc1OCc1ccc(Br)cc1
- IC50 [1]: 4.9 µM
- CC50 at 24 h [2]: 198 µM
- MIC (Pseudomonas aeruginosa): 12.5 µg/mL (≈ 27.2 µM)
- MIC (Bacillus spizizenii): 6.25 µg/mL (≈ 13.6 µM)
- MIC (Escherichia coli): 12.5 µg/mL (≈ 27.2 µM)
- HC50 at 3 h [3]: > 10 µM
- MIC (Staphylococcus aureus): 6.25 µg/mL (≈ 13.6 µM)

Structure (SMILES): Cc1ncc([N+](=O)[O-])n1CCOC(=O)c1ccccc1OCc1ccccc1C(F)(F)F
- IC50 [1]: 7.8 µM
- CC50 at 24 h [2]: 233 µM
- MIC (Pseudomonas aeruginosa): 100 µg/mL (≈ 223 µM)
- MIC (Bacillus spizizenii): 50 µg/mL (≈ 111 µM)
- MIC (Escherichia coli): 100 µg/mL (≈ 223 µM)
- HC50 at 3 h [3]: > 10 µM
- MIC (Staphylococcus aureus): 100 µg/mL (≈ 223 µM)
